Data on five molecules can be found in patent EP0416604A2, “PAF-antagonists for the preparation of a medicament, useful for the treatment of heart diseases, caused by diminished beta-receptor-stimulation” (Dr. Karl Thomae GmbH, priority 1989, dated 1991).

One data set relates to Maus. Particulars: p.o., acute toxicity; cited from earlier work.
The test system of a further data set is cardialen β-Rezeptoren. In words: LV-dP/dtmax (cardiac contractility) response to isoprenaline in anaesthetised, despinalised rats before and after PAF infusion. Particulars: for Steigerung LV-dP/dtmax: despinalised rats, n=6, control before PAF. On the set-up: Steigerung von LV-dP/dtmax durch Isoprenalin (Ansprechbarkeit der cardialen β-Rezeptoren): dose or concentration left out as unconfirmed. It counts as in vivo, Ratten. The protocol: Die neu aufgefundene Wirkung der PAF-Antagonisten wurde beispielsweise an B = 4-(2-Chlorphenyl)-9-methyl-2-[3-(4-morpholinyl)-3-propanon-1-yl]-6H-thieno[3.2-f][1.2.4]triazolo[4.3-a][1.4]-diazepin wie folgt geprüft: Männliche Ratten (Chbb:THOM, ca. 300 g) werden mit Hexobarbital-Natrium (150 mg/kg i.p.) narkotisiert. Die Trachea wird kannuliert und danach werden die Tiere despinalisiert. Die Tiere werden künstlich beatmet und mittels einem Heizkissen auf 37°C gehalten. Zur Messung des linksventrikulärem Drucks wird über die Arteria Carotis in den linken Ventrikel ein Millar Tipmanometer geschoben. Dieses Signal wird elektronisch differentiert und ist als LV-dP/dtmax ein Maß für die Kontraktionskraft des Herzes. Über einen Katheter in der anderen Arteria Carotis wird der arterielle Blutdruck gemessen. Die zu untersuchenden Substanzen werden intravenös über eine Kanüle in der Vena jugularis injiziert.
Isoprenalin (3-100 ng/kg) steigert dosisabhänig LV-dP/dtmax von 300 ± 90 bis 4450 ± 290 mm Hg/s (n=6). Nach einer 45-minütigen Infusion von PAF (50-100 ng/kg/min.) wurde wieder Isoprenalin (3 bis 100 ng/kg) injiziert. […] Dann wurde die Substanz B (10 mg/kg i.v.) verabreicht und nach 10 Minuten wurde wieder Isoprenalin injiziert.

As for `Cc1nnc2n1-c1sc3c(c1C(c1ccccc1Cl)=NC2)CC(C(=O)N1CCOCC1)C3` (single isomer, unassigned; (-)) [Substanz A, (-)-6-(2-Chlorphenyl)-8,9-dihydro-1-methyl-8-[(4-morpholinyl)carbonyl]-4H,7H-cyclopenta[4.5]thieno[3,2-f][1.2.4]triazolo[4.3-a][1.4]diazepin], in the data set with Maus, the LD₅₀ is listed as 1960 mg/kg.

Regarding `CCCN(CCC)C(=O)C1Cc2sc3c(c2C1)C(c1ccccc1Cl)=NCc1nnc(C)n1-3` (stereo not drawn) [Substanz C], the LD₅₀ with Maus was 1700 mg/kg.

Turning to `CCCCCCCCCCCCCCCCOCC(COP(=O)([O-])OCC[N+](C)(C)C)OC(C)=O` (stereo not drawn) [PAF], the “Effekte von 3 und 10 ng/kg Isoprenalin (LV-dP/dtmax)” value in the data set on cardialen β-Rezeptoren (after 45 min infusion of PAF 50-100 ng/kg/min, rats) is given as “nicht beeinflußt”. The “positiv inotrope Wirkung von dem Histamin-2 Agonist Dimaprit” value in the data set on cardialen β-Rezeptoren (effect of PAF on Dimaprit 1-10 mg/kg) was “absolut nicht beeinflußt”. Besides, in the data set on cardialen β-Rezeptoren (effect of PAF on Forskolin 3-20 µg/kg), the “positiv inotrope Wirkung von dem Adenylcyclase Aktivator Forskolin” value was “absolut nicht beeinflußt”.

Take `CC(C)NCC(O)c1ccc(O)c(O)c1` (stereo not drawn) [Isoprenalin]: the “Steigerung LV-dP/dtmax” value is on record as 300 ± 90 mm Hg/s in the data set on cardialen β-Rezeptoren (Isoprenalin 3 ng/kg i.v. (lower end of dose range 3-100 ng/kg)) and 4450 ± 290 mm Hg/s in the data set with cardialen β-Rezeptoren (Isoprenalin 100 ng/kg i.v. (upper end of dose range 3-100 ng/kg)).

Regarding `Cc1nnc2n1-c1sc(CCC(=O)N3CCOCC3)cc1C(c1ccccc1Cl)=NC2` [Substanz B, 4-(2-Chlorphenyl)-9-methyl-2-[3-(4-morpholinyl)-3-propanon-1-yl]-6H-thieno[3.2-f][1.2.4]triazolo[4.3-a][1.4]diazepin], the “Steigerung von LV-dP/dtmax durch Isoprenalin (Ansprechbarkeit der cardialen β-Rezeptoren)” value in the data set with cardialen β-Rezeptoren (isoprenaline injected again after 10 min, responsiveness fully restored, rats) is “nicht signifikant unterschiedlich von den Kontrollwerten”. Also, in the data set with Maus, the LD₅₀ is 4600 mg/kg.
